Test results taken from patent US20160069887A1, “BIOMARKERS FOR PROGNOSIS” (ISIS INNOVATION LIMITED, priority 2013, published 2016).
Where a SMILES comes first, the peptide text is derived from it. The star is where a group is joined. Cbz = O=C(OCc1ccccc1)*

Tests used:
[1] = tested on: U2OS cells; assay: Immunoblot for apoptosis (PARP) and autophagy (LC3 cleavage); format: cell-based; conditions: co-treatment SAHA and 3-methyladenine (10 mM) for 18 hr
[2] = tested on: Flag-HDAC6 stable inducible cell line; assay: Immunoblot of endogenous HR23B and cleaved caspase 3 upon induction of Flag-HDAC6; conditions: for HDAC6-dependent down-regulation of HR23B: Dox-induced Flag-HDAC6, 3MA 5 and 10 mM, 17-AAG 0.1 or 1 μM, tubastatin 10 μM, bortezomib 48 hr
[3] = tested on: U2OS cells; assay: Global ubiquitination (His6-ubiquitin, Ni2+ pull-down, anti-His immunoblot); format: cell-based; conditions: for global ubiquitination, SAHA and MG132 combined: SAHA 5 μM 20 hr and MG132 20 μM 4 hr
Protocol: Cell lysates and Ni^2+ pull-down eluates were analyzed by immunoblotting with anti-His as described. The input HR23B is shown underneath, together with actin levels.
Ni^2+ pull-down eluates were analyzed by immunoblotting with anti-His. The input HR23B level is shown underneath, together with actin levels.
Transfected cells in a 10 cm dish were washed twice with ice-cold PBS and harvested into 1 ml of 8M urea, 0.1 M Na2HPO4/NaH2PO4, 0.01M Tris-HCl, and pH8.0. Lysates were sheared by taking through 23 gauge needle to reduce viscosity. Protein concentration was measured with Bradford (Bio-Rad) and normalised. About 100 μl of lysate was mixed with 4×SDS loading buffer for input. Then 900 μl of lysate was incubated with 70 μl of a 50% slurry of nickel (Ni^2+-NTA)-agarose beads (Qiagen), 5 mM imidazole and 10 mM β-mercaptoethanol overnight at 4° C. The beads were collected by 1 min centrifugation at 8,000 rpm and washed with 750 μl of the following buffers with 5 min mixing at room temperature for each washing step: twice with 8M urea, 0.1M Na2HPO4/NaH2PO4, 0.01 M Tris-HCl, pH 8.0, 10 mM β-mercaptoethanol and 0.1% Triton X-100; three times with 8M urea, 0.1M Na2HPO4/NaH2PO4, 0.01M Tris-HCl, pH 6.3, 10 mM β-mercaptoethanol and 0.1% Triton X-100. The bound proteins were then eluted with 100 μl of elution buffer (200 mM imidazole, 5% SDS, 150 mM Tris-HCl pH6.8, 30% glycerol, 720 mM β-mercaptoethanol, 0.005% bromophenol blue) for 30 min incubation followed by 10 min spin at 13,000 rpm. Samples were heated to 95° C. for 5 min, cooled, and a typical volume of 30 μl loaded on each lane for immunoblot analysis.

[4] = tested on: HUT78, MYLA (CTCL), A2058, A375 (melanoma), HCT116 and HCT15 (CRC); assay: Immunoblot of autophagy markers and HR23B in tumour cell lines treated with HDAC inhibitors; format: cell-based; conditions: for autophagy markers (LC3 cleavage, LAMP1, cathepsin D): immunoblot after 18 hr or 24 hr treatment
[5] = tested on: U2OS cells; assay: Visualisation of autophagosomes by anti-LC3 immunostaining; format: cell-based
Protocol: Counter-stain with DAPI was superimposed for each image.
Cells seeded onto coverslips were washed in PBS and fixed in 3.7% formaldehyde for 15 min. Cells were permeabilised in PBS containing 0.5% Triton X-100 for 5 min and then blocked in 5% FCS/PBS for 30 min at room temperature before incubation with primary antibody as indicted. Coverslips were washed in PBS containing 0.05% Tween-20 and incubated with corresponding secondary antibodies for 30 min at room temperature. Alexa Fluro 488 (green fluorescence) or Alexa Fluor 594 (red fluorescence) (Molecular Probes). Finally coverslips were washed extensively in PBS containing 0.05% Tween-20 and mounted onto microscope slides using Vectashield containing DAPI (Vector Laboratories).

[6] = tested on: patients after potentially-curative surgery for stage II/III colorectal cancer; conditions: 1167 rofecoxib patients; median follow-up 4.84 years; cited from earlier work
[7] = biological target: T1, Flag-HDAC6 (wild-type, full length, ectopic) (human, UniProt Q9UBN7 1-1215); assay: anti-Flag co-immunoprecipitation of Flag-HDAC6 from co-transfected U2OS cells, anti-Myc immunoblot
T1 construct: Expressed by transfection or by doxycycline induction in U2OS cells; also called pcDNA-Flag-HDAC6; WT HDAC6; not shown: Flag tag
T1 sequence: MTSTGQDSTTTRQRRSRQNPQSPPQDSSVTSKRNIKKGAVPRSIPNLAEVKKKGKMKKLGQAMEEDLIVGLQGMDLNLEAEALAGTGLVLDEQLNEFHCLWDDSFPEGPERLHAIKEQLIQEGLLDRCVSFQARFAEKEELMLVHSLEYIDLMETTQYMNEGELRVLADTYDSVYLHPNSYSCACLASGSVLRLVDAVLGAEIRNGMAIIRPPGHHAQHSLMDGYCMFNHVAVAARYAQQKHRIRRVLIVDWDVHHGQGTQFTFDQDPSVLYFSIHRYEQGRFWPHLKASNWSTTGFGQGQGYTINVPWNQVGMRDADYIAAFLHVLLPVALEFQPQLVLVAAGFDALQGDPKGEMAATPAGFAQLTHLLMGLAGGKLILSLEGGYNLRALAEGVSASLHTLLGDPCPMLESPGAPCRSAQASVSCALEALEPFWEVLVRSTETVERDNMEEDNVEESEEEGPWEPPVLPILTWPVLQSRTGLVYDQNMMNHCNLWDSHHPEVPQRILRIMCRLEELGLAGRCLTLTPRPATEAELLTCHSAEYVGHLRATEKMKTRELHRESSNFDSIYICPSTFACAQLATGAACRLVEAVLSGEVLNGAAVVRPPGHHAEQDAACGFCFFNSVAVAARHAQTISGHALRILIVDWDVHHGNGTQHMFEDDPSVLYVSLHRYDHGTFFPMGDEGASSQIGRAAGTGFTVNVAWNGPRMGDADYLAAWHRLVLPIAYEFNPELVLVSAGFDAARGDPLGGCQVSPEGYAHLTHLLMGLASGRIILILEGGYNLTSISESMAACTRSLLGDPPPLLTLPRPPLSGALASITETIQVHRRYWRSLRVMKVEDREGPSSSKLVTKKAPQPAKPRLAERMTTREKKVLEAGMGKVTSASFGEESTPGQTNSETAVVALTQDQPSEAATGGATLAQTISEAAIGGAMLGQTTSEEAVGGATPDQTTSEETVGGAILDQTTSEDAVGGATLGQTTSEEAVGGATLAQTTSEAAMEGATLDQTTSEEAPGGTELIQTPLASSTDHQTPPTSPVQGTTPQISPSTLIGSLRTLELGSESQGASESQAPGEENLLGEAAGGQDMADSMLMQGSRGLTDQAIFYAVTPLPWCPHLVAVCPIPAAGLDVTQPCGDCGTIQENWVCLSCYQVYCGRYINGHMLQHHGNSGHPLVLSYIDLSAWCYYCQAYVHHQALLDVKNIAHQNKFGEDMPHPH

Cn1cnc(N)c2ncnc1-2 [3-MA, 3-methyladenine]
level of apoptosis [1]: an enhanced level of apoptosis was apparent | HDAC6-dependent down-regulation of HR23B [2]: failed to affect down-regulation of HR23B by HDAC6

C=CCNC1=C2C[C@@H](C)C[C@H](OC)[C@H](O)[C@@H](C)/C=C(\C)[C@H](OC(N)=O)[C@@H](OC)/C=C\C=C(/C)C(=O)NC(=CC1=O)C2=O [17-AAG]
HDAC6-dependent down-regulation of HR23B [2]: HDAC6 failed to down-regulate HR23B

CC(C)C[C@@H](C=O)NC(=O)[C@H](CC(C)C)NC(=O)[C@H](CC(C)C)NC(=O)OCc1ccccc1 [MG132] (Cbz-Leu-Leu-Leu-aldehyde)
global ubiquitination, SAHA and MG132 combined [3]: even greater level of ubiquitination | global ubiquitination, single agent ([3]; SAHA 5 μM 20 hr or MG132 20 μM 4 hr, vs untreated): increase in ubiquitination

O=C(CCCCCCC(=O)Nc1ccccc1)NO [SAHA, N-hydroxy-N′-phenyloctanediamide]
level of HR23B ([4]; at increasing SAHA concentration, coinciding with autophagocytic markers): decreased levels of HR23B | autophagy markers (LC3 cleavage, LAMP1, cathepsin D) [4]: caused LC3 cleavage as well as the appearance of LAMP1 and cathepsin D | autophagosomes when ectopic HR23B was expressed ([5]; SAHA 10 μM for 18 hr, + vs − doxycycline): less evident | visual appearance of autophagosomes ([5]; SAHA 10 and 20 μM): visual appearance of autophagosomes in cells | level of apoptosis [1]: an enhanced level of apoptosis was apparent | global ubiquitination, SAHA and MG132 combined [3]: even greater level of ubiquitination

CS(=O)(=O)c1ccc(C2=C(c3ccccc3)C(=O)OC2)cc1 [rofecoxib]
deaths [6]: 241 | recurrences [6]: 297

CCCC(CCC)C(=O)O [valproic acid, 2-Propylpentanoic acid]
autophagy markers (LC3 cleavage, LAMP1, cathepsin D) [4]: resulted in similar effects

tubastatin
HDAC6-dependent down-regulation of HR23B [2]: did not impact on the HDAC6-dependent down-regulation of HR23B | increase in HR23B upon 17-AAG treatment ([2]; tubastatin 10 μM together with 17-AAG): did prevent the increase in HR23B upon 17-AAG treatment

B1: HR23B ΔUbL, myc/his tagged (other)
chain: AVSTPAPATTQQSAPASTTAVTSSTTTTVAQAPTPVPALAPTSTPASITPASATASSEPAPASAAKQEKPAEKPAETPVATSPTATDSTSGDSSRSNLFEDATSALVTGQSYENMVTEIMSMGYEREQVIAALRASFNNPDRAVEYLLMGIPGDRESQAVVDPPQAASTGAPQSSAVAAAAATTTATTTTTSSGGHPLEFLRNQPQFQQMRQIIQQNPSLLPALLQQIGRENPQLLQQISQHQEHFIQMLNEPVQEAGGQGGGGGGGSGGIAEAGSGHMNYIQVTPQEKEAIERLKALGFPEGLVIQAYFACEKNENLAANFLLQQNFDED
notes: not shown: myc/his tag from the pcDNA3.1 (+)/Myc-His vector
binding result [7]: no binding
